# ChEMBL document CHEMBL4251611, “The synthesis, antifungal and apoptotic effects of triazole-oxadiazoles against Candida species” (Eur J Med Chem, 2018)
# Assays:
# Candida albicans [1] = experiment: Antifungal activity against Candida albicans ATCC 90028 by broth microdilution assay; assay type: functional
# Nakaseomyces glabratus [2] = experiment: Antifungal activity against Candida glabrata ATCC 90030 by broth microdilution assay; assay type: functional
# Pichia kudriavzevii [3] = experiment: Antifungal activity against Candida krusei ATCC 6258 by broth microdilution assay; assay type: functional
# Candida parapsilosis [4] = experiment: Antifungal activity against Candida parapsilosis ATCC 22019 by broth microdilution assay; assay type: functional; details: Lodderomyces parapsilosis
# NIH3T3 = experiment: Cytotoxicity against mouse NIH/3T3 cells assessed as reduction in cell viability after 24 hrs by MTT assay; assay type: cell-based; details: NIH3T3, 24 h
# Candida albicans [5] = experiment: Induction of apoptosis in Candida albicans ATCC 90028 assessed as live cells at antifungal MIC90 after 24 hrs by Annexin V/propidium iodide staining based flow cytometry (reference value: 99.8%); assay type: functional
# Candida albicans [6] = experiment: Induction of apoptosis in Candida albicans ATCC 90028 assessed as early apoptotic cells at antifungal MIC90 after 24 hrs by Annexin V/propidium iodide staining based flow cytometry (reference value: 0%); assay type: functional
# Candida albicans [7] = experiment: Induction of apoptosis in Candida albicans ATCC 90028 assessed as late apoptotic cells at antifungal MIC90 after 24 hrs by Annexin V/propidium iodide staining based flow cytometry (reference value: 0%); assay type: functional
# Candida albicans [8] = experiment: Induction of apoptosis in Candida albicans ATCC 90028 assessed as necrotic cells at antifungal MIC90 after 24 hrs by Annexin V/propidium iodide staining based flow cytometry (reference value: 0.2%); assay type: functional
# Nakaseomyces glabratus [9] = experiment: Induction of apoptosis in Candida glabrata ATCC 90030 assessed as live cells at antifungal MIC90 after 24 hrs by Annexin V/propidium iodide staining based flow cytometry (reference value: 99.5%); assay type: functional
# Nakaseomyces glabratus [10] = experiment: Induction of apoptosis in Candida glabrata ATCC 90030 assessed as early apoptotic cells at antifungal MIC90 after 24 hrs by Annexin V/propidium iodide staining based flow cytometry (reference value: 0%); assay type: functional
# Nakaseomyces glabratus [11] = experiment: Induction of apoptosis in Candida glabrata ATCC 90030 assessed as late apoptotic cells at antifungal MIC90 after 24 hrs by Annexin V/propidium iodide staining based flow cytometry (reference value: 0.2%); assay type: functional
# Nakaseomyces glabratus [12] = experiment: Induction of apoptosis in Candida glabrata ATCC 90030 assessed as necrotic cells at antifungal MIC90 after 24 hrs by Annexin V/propidium iodide staining based flow cytometry (reference value: 0.3%); assay type: functional
# Pichia kudriavzevii [13] = experiment: Induction of apoptosis in Candida krusei ATCC 6258 assessed as live cells at antifungal MIC90 after 24 hrs by Annexin V/propidium iodide staining based flow cytometry (reference value: 97.3%); assay type: functional
# Pichia kudriavzevii [14] = experiment: Induction of apoptosis in Candida krusei ATCC 6258 assessed as early apoptotic cells at antifungal MIC90 after 24 hrs by Annexin V/propidium iodide staining based flow cytometry (reference value: 0.5%); assay type: functional
# Pichia kudriavzevii [15] = experiment: Induction of apoptosis in Candida krusei ATCC 6258 assessed as late apoptotic cells at antifungal MIC90 after 24 hrs by Annexin V/propidium iodide staining based flow cytometry (reference value: 1.4%); assay type: functional
# Pichia kudriavzevii [16] = experiment: Induction of apoptosis in Candida krusei ATCC 6258 assessed as necrotic cells at antifungal MIC90 after 24 hrs by Annexin V/propidium iodide staining based flow cytometry (reference value: 0.9%); assay type: functional
# Candida parapsilosis [17] = experiment: Induction of apoptosis in Candida parapsilosis ATCC 22019 assessed as live cells at antifungal MIC90 after 24 hrs by Annexin V/propidium iodide staining based flow cytometry (reference value: 97.6%); assay type: functional
# Candida parapsilosis [18] = experiment: Induction of apoptosis in Candida parapsilosis ATCC 22019 assessed as early apoptotic cells at antifungal MIC90 after 24 hrs by Annexin V/propidium iodide staining based flow cytometry (reference value: 0.1%); assay type: functional
# Candida parapsilosis [19] = experiment: Induction of apoptosis in Candida parapsilosis ATCC 22019 assessed as late apoptotic cells at antifungal MIC90 after 24 hrs by Annexin V/propidium iodide staining based flow cytometry (reference value: 0.9%); assay type: functional
# Candida parapsilosis [20] = experiment: Induction of apoptosis in Candida parapsilosis ATCC 22019 assessed as necrotic cells at antifungal MIC90 after 24 hrs by Annexin V/propidium iodide staining based flow cytometry (reference value: 1.4%); assay type: functional
# Candida albicans [21] = experiment: Induction of apoptosis in Candida albicans ATCC 90028 assessed as increase in late apoptotic cells at antifungal MIC90 by Annexin V/propidium iodide staining based flow cytometry; assay type: functional, organism-based; details: TDE = time-dependent effect
# Nakaseomyces glabratus [22] = experiment: Induction of apoptosis in Candida glabrata ATCC 90030 assessed as increase in late apoptotic cells at antifungal MIC90 by Annexin V/propidium iodide staining based flow cytometry; assay type: functional, organism-based; details: TDE = time-dependent effect
# Pichia kudriavzevii [23] = experiment: Induction of apoptosis in Candida krusei ATCC 6258 assessed as increase in late apoptotic cells at antifungal MIC90 by Annexin V/propidium iodide staining based flow cytometry; assay type: functional, organism-based; details: TDE = time-dependent effect
# Candida parapsilosis [24] = experiment: Induction of apoptosis in Candida parapsilosis ATCC 22019 assessed as increase in late apoptotic cells at antifungal MIC90 by Annexin V/propidium iodide staining based flow cytometry; assay type: functional, organism-based; details: TDE = time-dependent effect
MIC90 (Candida albicans [1]) [µg/mL],MIC90 (Nakaseomyces glabratus [2]) [µg/mL],MIC90 (Pichia kudriavzevii [3]) [µg/mL],MIC90 (Candida parapsilosis [4]) [µg/mL],Structure (SMILES),IC50 (NIH3T3) [µg/mL],Activity (Candida albicans [5]) [%],Activity (Candida albicans [6]) [%],Activity (Candida albicans [7]) [%],Activity (Candida albicans [8]) [%],Activity (Nakaseomyces glabratus [9]) [%],Activity (Nakaseomyces glabratus [10]) [%],Activity (Nakaseomyces glabratus [11]) [%],Activity (Nakaseomyces glabratus [12]) [%],Activity (Pichia kudriavzevii [13]) [%],Activity (Pichia kudriavzevii [14]) [%],Activity (Pichia kudriavzevii [15]) [%],Activity (Pichia kudriavzevii [16]) [%],Activity (Candida parapsilosis [17]) [%],Activity (Candida parapsilosis [18]) [%],Activity (Candida parapsilosis [19]) [%],also measured
250,250,500,500,Cn1cnnc1SCCc1nnc(SCC(=O)Nc2ccccc2)o1,> 500,–,–,–,–,–,–,–,–,–,–,–,–,–,–,–,–
250,250,500,500,Cn1cnnc1SCCc1nnc(SCC(=O)Nc2ccc(F)cc2)o1,> 500,–,–,–,–,–,–,–,–,–,–,–,–,–,–,–,–
250,250,500,500,COc1ccc(NC(=O)CSc2nnc(CCSc3nncn3C)o2)cc1,> 500,–,–,–,–,–,–,–,–,–,–,–,–,–,–,–,–
250,250,500,500,Cn1cnnc1SCCc1nnc(SCC(=O)Nc2ccc(Cl)cc2)o1,> 500,–,–,–,–,–,–,–,–,–,–,–,–,–,–,–,–

# Further lines, the molecule ahead of its results:
Structure (SMILES),MIC90 (Candida albicans [1]) [µg/mL],MIC90 (Nakaseomyces glabratus [2]) [µg/mL],MIC90 (Pichia kudriavzevii [3]) [µg/mL],MIC90 (Candida parapsilosis [4]) [µg/mL],IC50 (NIH3T3) [µg/mL],Activity (Candida albicans [5]) [%],Activity (Candida albicans [6]) [%],Activity (Candida albicans [7]) [%],Activity (Candida albicans [8]) [%],Activity (Nakaseomyces glabratus [9]) [%],Activity (Nakaseomyces glabratus [10]) [%],Activity (Nakaseomyces glabratus [11]) [%],Activity (Nakaseomyces glabratus [12]) [%],Activity (Pichia kudriavzevii [13]) [%],Activity (Pichia kudriavzevii [14]) [%],Activity (Pichia kudriavzevii [15]) [%],Activity (Pichia kudriavzevii [16]) [%],Activity (Candida parapsilosis [17]) [%],Activity (Candida parapsilosis [18]) [%],Activity (Candida parapsilosis [19]) [%],also measured
Cn1cnnc1SCCc1nnc(SCC(=O)Nc2nc3ccc(F)cc3s2)o1,62.5,62.5,62.5,62.5,> 500,46.9,0.1,39.5,13.5,46.4,0.1,36.6,17,30.2,0,42.3,27.5,40.5,0.1,41.7,Activity (Candida parapsilosis [20]): 17.7%; Activity (Candida albicans [21]): Tde; Activity (Nakaseomyces glabratus [22]): Tde; Activity (Pichia kudriavzevii [23]): Tde; Activity (Candida parapsilosis [24]): Tde
CC(=O)N1CCN(c2ccc(OCC3COC(Cn4ccnc4)(c4ccc(Cl)cc4Cl)O3)cc2)CC1 (stereo not drawn) [KETOCONAZOLE],62.5,62.5,1.56,1.56,396,35.3,1.1,11.2,52.4,23.7,0.1,4.1,72,23.8,0.3,8.3,67.7,27,0.5,15.2,Activity (Candida parapsilosis [20]): 57.3%
Cn1cnnc1SCCc1nnc(SCC(=O)Nc2ccc([N+](=O)[O-])cc2)o1,62.5,62.5,125,125,> 500,79.1,0.4,13.5,7,78.7,0.4,1.8,19.1,70.5,0.3,3.4,25.9,93.4,0.3,4.2,Activity (Candida parapsilosis [20]): 4.2%
Cn1cnnc1SCCc1nnc(SCC(=O)Nc2nc3ccc([N+](=O)[O-])cc3s2)o1,125,500,500,62.5,> 500,–,–,–,–,–,–,–,–,–,–,–,–,–,–,–,–
Cn1cnnc1SCCc1nnc(SCC(=O)Nc2nc3ccc(Cl)cc3s2)o1,125,500,500,62.5,422,–,–,–,–,–,–,–,–,–,–,–,–,–,–,–,–
Cn1cnnc1SCCc1nnc(SCC(=O)Nc2nc3ccccc3s2)o1,125,250,250,250,> 500,–,–,–,–,–,–,–,–,–,–,–,–,–,–,–,–
Clc1ccccc1C(c1ccccc1)(c1ccccc1)n1ccnc1 [CLOTRIMAZOLE],31.2,62.5,1.56,1.56,289,56.7,0.6,3.1,39.7,46.3,0.3,2.7,50.7,32.6,0.6,12.4,54.3,50.7,0.8,6.4,Activity (Candida parapsilosis [20]): 42.2%
COc1ccc2nc(NC(=O)CSc3nnc(CCSc4nncn4C)o3)sc2c1,125,500,500,62.5,485,–,–,–,–,–,–,–,–,–,–,–,–,–,–,–,–
